Like-named read-outs stand apart in the source and are kept apart here.
Tests used:
[1] = tested on: MXT breast neoplasm; experiment: Tumor-inhibiting effect on hormone-dependent MXT(+) breast cancer in mice; type: in vivo, mouse; settings: oral
Text: 2.1 MXT breast neoplasm in mice 2.1. Tumor-Inhibiting Effect on Hormone-Dependent […] Cancer in Mice Principle of the Method The MXT(+)-breast cancer is an estrogen- and progesterone receptor-positivetumor that was originally produced by induction with urethane and is then transplanted onward in series. Growth can be inhibited by ovariectomy and antiestrogens. This model is therefore very well suited for studying the tumor-inhibiting action of endocrinotherapeutic agents. Execution of the Test Animal Material Adult, female BDFI-mice (7-10 weeks old; weight 18-21 g). Standard care conditions. Formulation and Administration of Test Substances The test substances are dissolved in ethanol+peanut oil (1+9), and the one-time dose is administered at a volume of 0.1 ml s.c. In the case of oral administration, the test substance is dissolved in ethanol+peanut oil (1+9), and the daily dose is administered at a volume of 0.1 ml. The treatment begins either immediately after tumor implantation or 2-3 weeks thereafter (treatment of established tumors). […] Tumor growth is determined by ascertaining the tumor surface area with the aid of a sliding gauge. The tumor surface area is calculated from the product of the longest diameter and the tumor diameter that is perpendicular to said longest diameter. […] Analysis Average values ±SE of tumor surface areas are determined. […]

[2] = tested on: NMU-induced breast cancer; experiment: NMU-induced breast cancer in rats; type: in vivo, rat
Text: 2.3 NNMU^+ -induced breast cancer in rats
2.3 Influencing of Tumor Growth in the NMU^+ Model in Rats (MM Tumor Model)
^+ N-Methyl-N-nitrosourea
The growth of the NMU-induced breast neoplasm of rats is largely dependent on estrogens and, in contrast to the DMBA tumor model, less on prolactin. Active antiestrogens, aromatase inhibitors, and antigestagens lead to the inhibition of tumor growth. Substances with antigonadotrophic properties also exert a tumor-inhibiting action.
Female rats (Sprague-Dawley)
NMU=i.v., test substance: s.c./p.o. […]
p.o. = 0.1 or 0.2 ml/100 g/d in ethanol + peanut oil (1 + 9)
s.c. = 0.1 ml/100 g/d in ethanol + peanut oil (1 + 9)
The animals receive 50 mg/kg of NMU i.v. on a one-time basis. Then, the animals are examined once a week by palpation for tumor development. About 6-8 weeks after NMU treatment, one or more tumors develop per animal. At a minimum size of 150 mm^2 /tumor/animal, daily treatment (7× a week) begins with the test substance, and the determination of body weight+tumor size is done (with the aid of a sliding gauge) (1×/week).
(§1) The values that are found are tested for significance in the Dunnett Test and are plotted graphically.

[3] = tested on: MVLN cells; experiment: Transactivation assay, MVLN cells transfixed with reporter gene Vit-TK-LUC; type: cell-based; settings: Homo sapiens, read-out: IC50 [nM] MVLN cells
Procedure: (§2) The antiestrogenic action of the compounds according to the invention was determined in transactivation assays [Demirpence, E.; Duchesne M.-J.; Badia, E.; Gagne, D. and Pons, M.: MVLN Cells: A Bioluminescent MCF-7-Derived Cell Line to Study the Modulation of Estrogenic Activity; J. Steroid. Molec. Biol. Vol. 46, No. 3, 355-364 (1993) as well as Berry, M.; Metzeger D.; Chambon, P.: Role of the Two Activating Domains of the Estrogen Receptor in the Cell-type and Promoter-context Dependent Agonistic Activity of the Anti-estrogen 4-Hydroxytamoxifen; The EMBO Journal Vol. 9, 2811-2818 (1990)].
The IC50 values for the new compounds lie in the nanomolar range. […] The HeLa cells are transfixed with human estrogen receptor-expression vector (HEGO) and Vit-TK-CAT reporter genes, and the MVLN cells are transfixed with reporter gene Vit-TK-LUC: […]

[4] = tested on: uterus growth (estradiol benzoate); experiment: Uterus growth test in infantile rats (antiestrogenic action); type: in vivo, rat; settings: differences highly significant (FIG. 1 and 2)
Text: 1. Uterus growth test in infantile rats, s.c. and p.o. (test for antiestrogenic action)
1. Uterus Growth Test in Infantile Rats (Antiestrogenic Action)
In rodents, the uterus reacts to the administration of estrogens with an increase in weight (both proliferation and water retention). This growth is to be inhibited in a dose-dependent-manner by simultaneous administration of compounds with an antiestrogenic action.
Infantile female rats at a weight of 35-45 g at the beginning of the test, 5-6 animals per dose.
Formulation and Administration of the Substances: […]
Both for s.c. and for p.o. administration, the substances are dissolved in 1 part of ethanol (E) and made up with 9 parts of peanut oil (EO).
Young rats that have just been weaned from their mothers are delivered one day before the beginning of treatment for acclimatization and are immediately supplied with food--still in the animal cage. […] The wet weights (without contents) are determined from the prepared uteri. […]
For each group, the average values with standard deviation (X+SD), as well as the significance of the differences compared to the control group (EB) in the Dunnett Test (p<0.05), are determined from the relative organ weights (mg/100 g of body weight). […] The relative effects of the test substances are determined by covariance and regression analysis.

[5] = target: T1, human estrogen receptor (Homo sapiens, UniProt P03372); experiment: Transactivation assay, HeLa cells transfixed with human estrogen receptor-expression vector (HEGO) and Vit-TK-CAT reporter gene; type: cell-based
T1 construct: expressed in transfected cells; host or cells: HeLa
T1 sequence (P03372 1-595): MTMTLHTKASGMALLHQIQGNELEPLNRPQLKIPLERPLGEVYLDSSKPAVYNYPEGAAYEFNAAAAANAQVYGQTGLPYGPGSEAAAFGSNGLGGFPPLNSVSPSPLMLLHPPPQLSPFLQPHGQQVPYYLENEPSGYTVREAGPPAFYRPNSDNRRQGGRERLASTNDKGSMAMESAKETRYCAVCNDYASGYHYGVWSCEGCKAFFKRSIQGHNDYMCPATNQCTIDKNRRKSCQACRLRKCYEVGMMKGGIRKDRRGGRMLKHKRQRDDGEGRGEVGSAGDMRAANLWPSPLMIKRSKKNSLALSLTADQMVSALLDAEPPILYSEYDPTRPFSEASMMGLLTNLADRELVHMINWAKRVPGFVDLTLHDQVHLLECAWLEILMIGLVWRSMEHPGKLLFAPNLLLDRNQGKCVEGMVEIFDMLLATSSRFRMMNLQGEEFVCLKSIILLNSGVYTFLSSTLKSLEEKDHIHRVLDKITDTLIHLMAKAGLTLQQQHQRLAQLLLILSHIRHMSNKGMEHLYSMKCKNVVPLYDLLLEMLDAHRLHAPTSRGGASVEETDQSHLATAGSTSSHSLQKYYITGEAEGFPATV
Procedure: as §2
The HeLa cells are transfixed with human estrogen receptor-expression vector (HEGO) and Vit-TK-CAT reporter genes, and the MVLN cells are transfixed with reporter gene Vit-TK-LUC: […]

[6] = tested on: DMBA-induced breast cancer; experiment: DMBA-induced breast cancer in rats; type: in vivo, rat; settings: for inhibition of tumor growth: oral, 3 mg/kg/day (FIG. 4)
Text: 2.2 DMBA*-induced breast cancer in rats
2.2. Influencing Tumor Growth in the […] Model in Rats (DMBA Tumor Model)
*9,10-Dimethyl-1,2-benanthracene
The growth of the DMBA-induced breast neoplasm of rats is largely dependent on estrogens and prolactin. Active antiestrogens, antigestagens, and aromatase inhibitors result in the inhibition of tumor growth, and substances that have antigonadotropic and androgenic properties also exert a tumor-inhibiting action.
45-47-day-old female rats (Sprague-Dawley, breeder ZiH or Mollegard), 8-10 animals per group.
The animals receive 10 mg of DMBA orally on a one-time basis. Then, the animals are examined weekly by palpation for tumor development. Six to 10 weeks after DNBA treatment, approximately 1 to 10 tumors develop per animal. The tumor size is determined once a week with the aid of a sliding gauge. If at least one tumor has reached a specific size (150 mm^2 of tumor surface area), an ovariectomy is performed on the animals, or the treatment of the animals with the test substance begins. The treatment is carried out in most cases daily for a period of about 28 days (for details on execution, see Test Plan). The tumor size is subsequently determined once a week.
The total tumor size per animal is determined before the beginning of treatment (initial values). For each group, the average values of the percentage changes of the tumor size relative to the initial value are then calculated. In addition, the percentage of animals per group is determined, whose tumors in each case: (1) have totally disappeared (total regression); partially disappeared (partial regression); (3) are unchanged (no change); or (4) are further enlarged (enlargement).
as §1

CN(CCCCC[C@@H]1Cc2cc(O)ccc2[C@H]2CC[C@]3(C)[C@@H](O)CC[C@H]3[C@H]12)CCCSCCCC(F)(F)C(F)(F)F [Example 1, 7α-{5-[N-Methyl-N-3-(4,4,5,5,5-pentafluoropentylthio)-propylamino]-pentyl}-estra-1,3,5(10)-triene-3,17β-diol]
inhibition of tumor growth ([1]; 14 days of treatment, 10 mg/kg/day (FIG. 3)): inhibits tumor growth as strongly as an ovariectomy
activity compared to 7α-[9-(4,4,5,5,5-pentafluoropentanesulfinyl)-nonyl]-estra-1,3,5(10)-triene-3,17β-diol ([1]; MXT, 14 days, 10 mg/kg/day): more strongly active
activity compared to 7α-[9-(4,4,5,5,5-pentafluoropentanesulfinyl)-nonyl]-estra-1,3,5(10)-triene-3,17β-diol ([2]; NMU, oral): clearly more strongly active
inhibition of tumor growth ([2]; oral, 10 mg/kg/day): complete inhibition of tumor growth
inhibition of tumor growth, dose dependence ([2]; orally administered (FIG. 5)): inhibits tumor growth in a dose-dependent manner
IC50 ([3]; MVLN): 1 nM
relative antiestrogenic activity vs 7α-[9-(4,4,5,5,5-pentafluoropentanesulfinyl)-nonyl]-estra-1,3,5(10)-triene-3,17β-diol ([4]; oral administration): 4.7 times
relative antiestrogenic activity vs 7α-[9-(4,4,5,5,5-pentafluoropentanesulfinyl)-nonyl]-estra-1,3,5(10)-triene-3,17β-diol ([4]; subcutaneous administration): 5.4 times
IC50 [5]: 0.3 nM
activity compared to tamoxifen (TAM) ([6]; DMBA, oral (FIG. 4)): even more strongly active than tamoxifen (TAM)
inhibition of tumor growth [6]: completely inhibits tumor growth (no growth)

CN(CCCCC[C@@H]1Cc2cc(O)ccc2[C@H]2CC[C@@]3(C)[C@@H](CC[C@]3(C)O)[C@H]12)CCCSCCCC(F)(F)C(F)(F)F [Example 2, 17α-Methyl-7α-{5-[N-methyl-N-3-(4,4,5,5,5-pentafluoropentyl-thio)-propylamino]-pentyl}-estra-1,3,5(10)-triene-3,17β-diol]
IC50 ([3]; MVLN): 0.6 nM
IC50 [5]: 0.2 nM

C#C[C@]1(O)CC[C@H]2[C@@H]3[C@H](CCCCCN(C)CCCSCCCC(F)(F)C(F)(F)F)Cc4cc(O)ccc4[C@H]3CC[C@@]21C [Example 3, 17α-Ethinyl-7α-{5-[N-methyl-N-3-(4,4,5,5,5-pentafluoropentylthio)-propylamino]-pentyl}-estra-1,3,5(10)-triene-3,17β-diol]
IC50 ([3]; MVLN): 0.6 nM
IC50 [5]: 1 nM

CN(CCCCC[C@@H]1Cc2cc(O)ccc2[C@H]2CC[C@]3(C)[C@@H](O)CC[C@H]3[C@H]12)CCS(=O)(=O)CCCC(F)(F)C(F)(F)F [Example 4, 7α-{5-[N-Methyl-N-2-(4,4,5,5,5-pentafluoropentanesulfonyl)-ethylamino]-pentyl}-estra-1,3,5(10)-triene-3,17β-diol]
IC50 ([3]; MVLN): 1.3 nM
IC50 [5]: 0.16 nM

CN(CCCCC[C@@H]1Cc2cc(O)ccc2[C@H]2CC[C@]3(C)[C@@H](O)CC[C@H]3[C@H]12)CCCS(=O)(=O)CCCC(F)(F)C(F)(F)F [Example 5, 7α-{5-[N-Methyl-N-3-(4,4,5,5,5-pentafluoropentanesulfonyl)-propylamino]-pentyl}-estra-1,3,5(10)-triene-3,17β-diol]
IC50 ([3]; MVLN): 0.66 nM
IC50 [5]: 0.3 nM

CN(CCCCC[C@@H]1Cc2cc(O)ccc2[C@H]2CC[C@]3(C)[C@@H](O)CC[C@H]3[C@H]12)CCC[S+]([O-])CCCC(F)(F)C(F)(F)F (stereo partly drawn) [Example 6, 7α-{5-[N-Methyl-N-3-(4,4,5,5,5-pentafluoropentanesulfinyl)-propylamino]-pentyl}-estra-1,3,5(10)-triene-3,17β-diol]
IC50 ([3]; MVLN): 1 nM
IC50 [5]: 0.1 nM

C[C@]12CC[C@@H]3c4ccc(O)cc4C[C@@H](CCCCCCCCC[S+]([O-])CCCC(F)(F)C(F)(F)F)[C@H]3[C@@H]1CC[C@@H]2O (stereo partly drawn) [Reference, 7α-[9-(4,4,5,5,5-pentafluoropentanesulfinyl)-nonyl]-estra-1,3,5(10)-triene-3,17β-diol, reference compound]
IC50 ([3]; MVLN cells, Vit-TK-LUC): 6 nM
inhibition of tumor growth [6]: only a slight action
